Measured values from patent US12692471B2, “High aspect ratio devices and methods for vitrification of biological samples by rapid cooling” (The General Hospital Corporation, priority 2020, dated 2026).

How the values were obtained:
IFN-γ knockout mice = assay: In vivo infectivity of cryopreserved oocysts
Procedure: C. parvum oocysts at 2, 6 and 12 weeks of age were bleached (20%) and cryopreserved in the vitrification cassettes as described above using a two-step DMSO addition protocol with final concentration of 0.5 M trehalose/50% DMSO. Infectivity of cryopreserved oocysts was evaluated in 8-week-old female IFN-γ knockout mice bred under pathogen-free conditions (Jackson Laboratory, Bar Harbor, ME, USA). All mice experiments were conducted in an AAALAC accredited institution in compliance with the study protocol No. G2017-107 approved by the Tufts University Institutional Animal Care and Use Committee in accordance with the Guide for the Care and Use of Laboratory Animals (National Research Council). Mice were randomly assigned into groups of three by a blinded animal caretaker, however the investigators were not blinded during this experiment.
The animal care, inoculation and monitoring procedures were performed as described elsewhere (Jaskiewicz et al., Cryopreservation of infectious Cryptosporidium parvum oocysts. Nat. Commun. 9, 2883 (2018)), with modifications. Mice were immunosuppressed throughout the course of the experiment by administration of dexamethasone in drinking water at concentration 10 mg/L. Three days after immunosuppressive treatment started, each mouse received 30,000 PI^− cryopreserved oocysts in PBS suspension by oral gavage. […] Mice negative for signs of infection were monitored until 11 DPI. Intensity of fecal shedding was measured daily by inspection of the acid-fast stained fecal smear slides, prepared from a single fecal pellet of approximately equal size, for presence of oocysts in 30 fields (1000×).
The animal experiments which produced negative cryopreservation outcome were performed as described above with exception of few procedural details. A summary table describing the different cryopreservation methods evaluated and the corresponding outcome can be found in Table 1. […]

C. parvum oocysts [1] = assay: Oocyst viability by propidium iodide (PI) exclusion, flow cytometry; format: cell-based, Cryptosporidium parvum; conditions: for viability (PI exclusion): pre-freeze, 50% DMSO, 20% bleach condition
Procedure: To increase the intracellular concentration of CPA, oocysts were bleached with various concentrations of bleach-5% or 20% and then incubated with CPA cocktails consisting of trehalose (Sigma) and DMSO (Sigma) at different concentrations. Briefly, bleached oocysts were first dehydrated in 1.6 M or 1 M trehalose solution for 10 min and then incubated for another 5-15 min with DMSO achieving its final concentration of 30% or 50% (ambient conditions were used throughout). The DMSO/trehalose cocktail was then diluted by incubation with excess PBS (at ratio 1:100) for 30 min at room temperature and removed by centrifugation (18,000×g, 2 min). Cytotoxicity attributable to the CPA cocktail was measured by inclusion of PI (Sigma) at 10 μg/mL using flow cytometry (ACCURI® C6, BD Life Sciences) and was normalized to its control in PBS for each condition.
In an effort to maximize the concentration of intracellular and extracellular CPA without compromising oocyst viability, oocysts were gradually exposed to higher concentrations of DMSO by two-step addition. Here, 6-week-old bleached oocysts (5% or 20%) were first dehydrated in 1.6 M trehalose for 10 min. DMSO was added to achieve 0.8 M trehalose/30% DMSO solution and incubated for 5 min. The second addition of DMSO led to a final concentration of 0.5 M trehalose/50% DMSO and was incubated for 1 min. CPA cocktail was then diluted as described above. Cytotoxicity attributable to CPA cocktail was measured by inclusion of PI and was normalized to the untreated oocyst control in PBS.
(§1) Bleached (20%) C. parvum oocysts at 1-2, 6 and 12 weeks of age were cryopreserved as described above using a two-step DMSO addition protocol, such that final concentration of 0.5 M trehalose/50% DMSO was achieved. […] Pre-freeze and post-freeze oocyst viability was measured by PI exclusion at 10 μg/mL using flow cytometry and by an in vitro infectivity assay. […]
For evaluation of cryopreservation in insemination straws and cryovials, pre-freeze and post-freeze viability was measured only by PI exclusion as described above.

C. parvum oocysts [2] = assay: In vitro infectivity of oocysts in MDBK cells; format: cell-based, Cryptosporidium parvum
Procedure: All CPA cocktails described in FIG. 2A were further tested for infectivity in the in vitro model of epithelial cell infection using MDBK cells. Twenty thousand cells were seeded into each well of a 96-well culturing plate (Falcon) and maintained for two days to reach confluence (defined at 4×10^4/well). Oocysts were prepared for infection by bleaching and incubation with CPA cocktail as described above. After removal of diluted CPA in excess PBS, the oocyst pellet was resuspended in 50 μL of 0.75% sodium taurocholate (Sigma) and incubated at 37° C. for 15 min to prompt excystation. Pre-excysted oocysts were then added onto confluent cell monolayers at MOI 1:3. After 24-h co-incubation of parasite with cell monolayer, cultures were washed with PBS to remove extracellular stages of parasite, permeabilized with 100% methanol for 10 min at room temperature and then washed again with PBS. After fixation, cells were blocked with 10% FBS for 30 min and then incubated with fluorescein-labeled Vicia villosa lectin (Vector Laboratories) at concentration […] for 30 min to visualize intracellular stages of the parasite. After the final wash with PBS, monolayers were inspected with a Nikon ECLIPSE® Ti-E microscope (Nikon Instruments Inc.). Four images were taken of each well at 200× magnification using a FITC filter at 100 ms exposure. The number of fluorescing infection foci was then counted by ImageJ 1.48v particle analyzer using the following settings: triangle threshold 15-255, size exclusion at 10-1,000 pixel^2 and circularity at 0.1-1.0. Results depicted in FIG. 2B are expressed as percent infectivity of the control oocysts, which were treated with PBS in place of CPA.
as §1

[3] = 30% DMSO 5 min then 50% DMSO 1 min, compared with one-step at same overall concentration

Q: Which “Infectivity in animals after thawing” value (IFN-γ knockout mice; Rectangular capillary, 2 weeks oocysts, trehalose 1.6M/0.8M, One-step 50% DMSO, 5 min, dose 10,000) does the source give for C[S+](C)[O-] [DMSO, dimethyl sulfoxide] here?
A: The value was “No”.

Q: And the “Infectivity in animals after thawing” value (IFN-γ knockout mice; Vitrification cassette, 2-12 weeks oocysts, trehalose 1.6M/0.5M, Two-step 30% DMSO/50% DMSO, 5 min/1 min, dose 30,000)?
A: The value was “Yes”.

Q: What about the “Infectivity in animals after thawing” value (IFN-γ knockout mice; Vitrification cassette, 6 weeks oocysts, trehalose 1.6M/0.8M, One-step 50% DMSO, 5 min, dose 10,000) of the same compound?
A: Its value is “No”.

Q: And the “pre-freeze viability, two-step vs one-step DMSO addition” value (C. parvum oocysts [1]; [3])?
A: Its value is “significantly increased”.

Q: And the “viability (PI exclusion)” value (C. parvum oocysts [1]; 5 min incubation)?
A: The value was 59.4±2.3%.

Q: What about the “viability (PI exclusion)” value (C. parvum oocysts [1]; after 15 min or longer) of the same compound?
A: Its value is 17.5±5.0%.

Q: What about the “pre-freeze infectivity in vitro, two-step vs one-step DMSO addition” value (C. parvum oocysts [2]; [3]) of the same compound?
A: The value was “significantly increased”.

Q: What about the in vitro infectivity (C. parvum oocysts [2]; pre-freeze, 50% DMSO, 5 min incubation, 20% bleach condition, percent of control oocysts in PBS) of the same compound?
A: Its in vitro infectivity is 38.7±17.0%.

Q: What about the “infectivity (in vitro)” value (C. parvum oocysts [2]; pre-freeze, 50% DMSO, after 15 min or longer, 20% bleach condition) of the same compound?
A: The value was 6.4±1.9%.
